Reference: ChEMBL document CHEMBL1201862, “PubChem BioAssay data set” (2004)
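Dose response: 5 concentrations. Exposure: 48 h. Format: 96-well plates. Endpoint: linear interpolation; highest concentration if not reached. GI50 is the concentration that inhibits growth by half.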 Calls of active or inactive are those of the source. No stated cut-off is given here; in the data, active = GI50 up to about 1.1 µM and inactive = higher.

Tests used:
Assay in all cases: NCI anticancer screen, dose series, 48 h
786-0 = tested on: 786-0
A498 = tested on: A498
A549 = tested on: A549
ACHN = tested on: ACHN
CAKI-1 = tested on: CAKI-1
CCRF-CEM = tested on: CCRF-CEM
COLO 205 = tested on: COLO 205
DLD-1 = tested on: DLD-1
DMS-114 = tested on: DMS-114
DMS-273 = tested on: DMS-273
EKVX = tested on: EKVX
HCC 2998 = tested on: HCC 2998
HCT-116 = tested on: HCT-116
HCT-15 = tested on: HCT-15
HOP-18 = tested on: HOP-18
HOP-62 = tested on: HOP-62
HT-29 = tested on: HT-29
IGROV-1 = tested on: IGROV-1
K562 = tested on: K562
KM-20L2 = tested on: KM-20L2
KM12 = tested on: KM12
LOX IMVI = tested on: LOX IMVI
M14 = tested on: M14
M19-MEL = tested on: M19-MEL
Malme-3M = tested on: Malme-3M
NCI-H226 = tested on: NCI-H226
NCI-H23 = tested on: NCI-H23
NCI-H460 = tested on: NCI-H460
OVCAR-3 = tested on: OVCAR-3
OVCAR-4 = tested on: OVCAR-4
OVCAR-5 = tested on: OVCAR-5
OVCAR-8 = tested on: OVCAR-8
RPMI-8226 = tested on: RPMI-8226
RXF 631 = tested on: RXF 631
SF-268 = tested on: SF-268
SF-295 = tested on: SF-295
SF-539 = tested on: SF-539
SK-MEL-28 = tested on: SK-MEL-28
SK-MEL-2 = tested on: SK-MEL-2
SK-MEL-5 = tested on: SK-MEL-5
SK-OV-3 = tested on: SK-OV-3
SN12C = tested on: SN12C
SNB-19 = tested on: SNB-19
SNB-75 = tested on: SNB-75
SNB-78 = tested on: SNB-78
SW-620 = tested on: SW-620
TK-10 = tested on: TK-10
U-251 = tested on: U-251
UACC-257 = tested on: UACC-257
UACC-62 = tested on: UACC-62
UO-31 = tested on: UO-31
DU-145 = tested on: DU-145
HL-60 = tested on: HL-60
HOP-92 = tested on: HOP-92
Hs-578T = tested on: Hs-578T
LXFL 529 = tested on: LXFL 529
MCF7 = tested on: MCF7
MDA-MB-231 = tested on: MDA-MB-231
MDA-MB-435 = tested on: MDA-MB-435
MDA-N = tested on: MDA-N
NCI-H522 = tested on: NCI-H522
NCI/ADR-RES = tested on: NCI/ADR-RES
PC-3 = tested on: PC-3
RXF 393 = tested on: RXF 393
SR = tested on: SR
T47D = tested on: T47D
XF498 = tested on: XF498

Structure (SMILES): c1ccc(C(c2ccccc2)c2cccnc2)cc1
- GI50 (786-0): > 100000 nM (inactive)
- GI50 (A498): > 100000 nM (inactive)
- GI50 (A549): 88100 nM (inactive)
- GI50 (ACHN): > 100000 nM (inactive)
- GI50 (CAKI-1): > 100000 nM (inactive)
- GI50 (CCRF-CEM): > 100000 nM (inactive)
- GI50 (COLO 205): > 100000 nM (inactive)
- GI50 (DLD-1): > 100000 nM (inactive)
- GI50 (DMS-114): 82000 nM (inactive)
- GI50 (DMS-273): > 100000 nM (inactive)
- GI50 (EKVX): 99500 nM (inactive)
- GI50 (HCC 2998): > 100000 nM (inactive)
- GI50 (HCT-116): > 100000 nM (inactive)
- GI50 (HCT-15): > 100000 nM
- GI50 (HOP-18): > 100000 nM (inactive)
- GI50 (HOP-62): > 100000 nM (inactive)
- GI50 (HT-29): > 100000 nM (inactive)
- GI50 (IGROV-1): > 100000 nM (inactive)
- GI50 (K562): 38300 nM (inactive)
- GI50 (KM-20L2): > 100000 nM (inactive)
- GI50 (KM12): > 100000 nM (inactive)
- GI50 (LOX IMVI): > 100000 nM (inactive)
- GI50 (M14): > 100000 nM (inactive)
- GI50 (M19-MEL): > 100000 nM (inactive)
- GI50 (Malme-3M): > 100000 nM (inactive)
- GI50 (NCI-H226): > 100000 nM (inactive)
- GI50 (NCI-H23): 65800 nM (inactive)
- GI50 (NCI-H460): > 100000 nM (inactive)
- GI50 (OVCAR-3): > 100000 nM (inactive)
- GI50 (OVCAR-4): > 100000 nM (inactive)
- GI50 (OVCAR-5): > 100000 nM (inactive)
- GI50 (OVCAR-8): 99300 nM (inactive)
- GI50 (RPMI-8226): 46100 nM (inactive)
- GI50 (RXF 631): > 100000 nM (inactive)
- GI50 (SF-268): > 100000 nM (inactive)
- GI50 (SF-295): > 100000 nM (inactive)
- GI50 (SF-539): > 100000 nM (inactive)
- GI50 (SK-MEL-28): > 100000 nM (inactive)
- GI50 (SK-MEL-2): > 100000 nM (inactive)
- GI50 (SK-MEL-5): 83800 nM (inactive)
- GI50 (SK-OV-3): > 100000 nM (inactive)
- GI50 (SN12C): > 100000 nM (inactive)
- GI50 (SNB-19): > 100000 nM (inactive)
- GI50 (SNB-75): 69000 nM (inactive)
- GI50 (SNB-78): > 100000 nM (inactive)
- GI50 (SW-620): > 100000 nM (inactive)
- GI50 (TK-10): > 100000 nM (inactive)
- GI50 (U-251): > 100000 nM (inactive)
- GI50 (UACC-257): > 100000 nM (inactive)
- GI50 (UACC-62): > 100000 nM (inactive)
- GI50 (UO-31): 97900 nM (inactive)

Structure (SMILES): Cc1ccc2oc(=O)c3c(O)c4cccc(OC5OC(C)C6O[C@@H](c7ccccc7)OC6C5OC5OC(C)C(O)C(O)C5O)c4c4oc(=O)c1c2c34 (stereo partly specified)
- GI50 (786-0): 38.9 nM (active)
- GI50 (A498): 27.4 nM (active)
- GI50 (A549): 35.4 nM (active)
- GI50 (ACHN): 27 nM (active)
- GI50 (CAKI-1): 138 nM (active)
- GI50 (CCRF-CEM): 18.2 nM (active)
- GI50 (COLO 205): 67.5 nM (active)
- GI50 (DLD-1): 156 nM (active)
- GI50 (DMS-114): 262 nM (active)
- GI50 (DMS-273): 27.8 nM (active)
- GI50 (DU-145): 174 nM (active)
- GI50 (EKVX): 461 nM (active)
- GI50 (HCC 2998): 44.2 nM (active)
- GI50 (HCT-116): < 17.1 nM (active)
- GI50 (HCT-15): 553 nM
- GI50 (HL-60): 53.6 nM (active)
- GI50 (HOP-18): 466 nM (active)
- GI50 (HOP-62): 45.2 nM (active)
- GI50 (HOP-92): 843 nM (active)
- GI50 (HT-29): 47.2 nM (active)
- GI50 (Hs-578T): 119 nM (active)
- GI50 (IGROV-1): 26.4 nM (active)
- GI50 (K562): 40.4 nM (active)
- GI50 (KM-20L2): 35.4 nM (active)
- GI50 (KM12): 78.5 nM (active)
- GI50 (LXFL 529): 59.4 nM (active)
- GI50 (M14): 187 nM (active)
- GI50 (M19-MEL): 110 nM (active)
- GI50 (MCF7): 32.4 nM (active)
- GI50 (MDA-MB-231): 197 nM (active)
- GI50 (MDA-MB-435): 270 nM (active)
- GI50 (MDA-N): 121 nM (active)
- GI50 (Malme-3M): 441 nM (active)
- GI50 (NCI-H226): 32.7 nM (active)
- GI50 (NCI-H23): 49.2 nM (active)
- GI50 (NCI-H460): < 31.6 nM (active)
- GI50 (NCI-H522): 57.4 nM (active)
- GI50 (NCI/ADR-RES): 3660 nM (inactive)
- GI50 (OVCAR-3): 85.7 nM (active)
- GI50 (OVCAR-4): 320 nM (active)
- GI50 (OVCAR-5): 162 nM (active)
- GI50 (OVCAR-8): < 21.5 nM (active)
- GI50 (PC-3): 95.5 nM (active)
- GI50 (RPMI-8226): 36.6 nM (active)
- GI50 (RXF 393): 187 nM (active)
- GI50 (RXF 631): 45.6 nM (active)
- GI50 (SF-268): 54.5 nM (active)
- GI50 (SF-295): 30.3 nM (active)
- GI50 (SF-539): 57.1 nM (active)
- GI50 (SK-MEL-28): 159 nM (active)
- GI50 (SK-MEL-2): 196 nM (active)
- GI50 (SK-MEL-5): 50.9 nM (active)
- GI50 (SK-OV-3): 200 nM (active)
- GI50 (SN12C): 51 nM (active)
- GI50 (SNB-19): 334 nM (active)
- GI50 (SNB-75): 49.2 nM (active)
- GI50 (SNB-78): 708 nM (active)
- GI50 (SR): < 11 nM (active)
- GI50 (SW-620): 48.6 nM (active)
- GI50 (T47D): 58.5 nM (active)
- GI50 (TK-10): 392 nM (active)
- GI50 (U-251): 53.5 nM (active)
- GI50 (UACC-62): 44.9 nM (active)
- GI50 (UO-31): 1140 nM (inactive)
- GI50 (XF498): 48.6 nM (active)
